From patent US8748105B2, “Method for selecting a candidate drug compound” (Pepscan Systems B.V., priority 2003, dated 2014)
Starred links: 1 amine or outer side, 2 acyl side, 3 side chain; linkers in the order of their positions; H or OH if unused. Positions of bridges follow the written chain, without caps; N, C: chain ends. T2 = dibromobenzene scaffold (1,3-bis(bromomethyl)benzene, m-dibromoxylene) forming thioether links to the two Cys; resin = solid-support resin (cross-linked polystyrene) to which the C-terminal amino acid is attached; mXylylene = c1cc(C[*:1])cc(C[*:2])c1

Experiments:
[1] = system: anti-FSH-β mAb 2; assay: Loopscan: sandwich ELISA of solid-phase cyclized or linear 12-mer FSH β3-loop peptides; assay type: binding; conditions: solid-phase 12-mer peptides; mAb 2 up to 10 μg/mL
Protocol: FIG. 12: ELISA results of the binding of anti-FSH monoclonal antibody 2 (10 μg/mL) in 3 μL miniwells containing overlapping a) cyclized (with m-dibromoxylene) and b) linear 12-mer peptides of the β3-loop of FSH-beta; Sequence of binding peptide: (AA68-AA79) Ac-CRVPGAAHHADSLC-resin (SEQ ID NO:5).
The formation of peptide loops via reaction of a linear peptide containing two free sulfhydryl groups with 1,3-bis(bromomethyl)benzene scaffold was also carried out on a polypropylene surface grafted with polyacrylic acid (6% solution containing CuSO4, irradiation using γ-radiation at a dose of 12 kGy) and functionalized with amino groups via coupling with t-butyloxycarbonyl-hexamethylene diamine (Boc-HMDA) using dicyclohexylcarbodiimide (DCC) with N-hydroxybenzotriazole (HOBt) and subsequent deprotection of the Boc-groups using trifluoroacetic acid (TFA). Standard Fmoc peptide chemistry was used to synthesize a set of overlapping linear peptides of 14 amino acid long peptides corresponding to the β3-loop of FSH in separate microwells of 3 μL each using our previously developed minicard format. Each peptide was synthesized with a Cys-residue in position 1, followed by the overlapping sequences of the FSH β3-loop (2-13, 3-14, 4-15, etc.) followed by another Cys-residue in the final position. […]

[2] = target: mAb 2 (anti-FSHβ monoclonal antibody); assay: Binding of looped peptide mimics of FSH-β to anti-FSH-β monoclonal antibody mAb 2 (Kd)
From the text: We used the synthetic strategy for structural fixation of linear peptides as outlined above. We tested the capacity of these small peptide-based beta-FSH mimics to bind to a number of different monoclonal antibodies specific for beta-FSH.

[3] = target: mAb 3468 (anti-beta-CG monoclonal antibody); assay: Binding of beta-CG mimics (T4 double-loop constructs) to monoclonal antibody 3468 (Kd)
From the text: For the inhibition of the specific interaction with hCG and its receptor there is a need for compounds which structurally mimic the hormone. […] It is, therefore, likely that binding of beta-CG to the receptor also involves a discontinuous binding on the hormone. Provided is the design and synthesis of small peptide-based beta-CG mimics that strongly bind to monoclonal antibody 3468. We used the synthetic strategy for structural fixation of linear peptides as outline above.
The beta-CG mimics are advantageously used for the production of antisera that react specifically with hCG.

[4] = target: mAb 1 (monoclonal antibody specific for beta-FSH); assay: Binding of beta-FSH mimics (T4 double-loop constructs) to beta-FSH-specific monoclonal antibody mAb 1 (Kd)
From the text: For the inhibition of the specific interaction with beta-FSH and its receptor, there is a need for structural mimics of the hormone. Although there is no crystallographic structure describing the interaction of beta-FSH with its receptor, it is very likely that this binding site is discontinuous in nature. We designed and synthesized a number of double-loop peptide construct on a tetrabromo-(T4)scaffold that could be used as beta-FSH mimics. We used the synthetic strategy for structural fixation of linear peptides as outlined above. We tested the capacity of these small peptide-based beta-FSH mimics to bind to a number of different monoclonal antibodies specific for beta-FSH. […] Furthermore, the beta-FSH mimics can be used successfully for the production of antisera that react specifically with beta-FSH.

| Substance | binding to anti-FSH-β mAb 2 in sandwich ELISA (in words) [1] | Kd [2] | Kd [3] | Kd [4] |
| --- | --- | --- | --- | --- |
| Ac-CRVPGAAHHADSLC-resin (linker 1-14 via mXylylene (inferred); also: C-terminus resin-bound) [68-79] | binds strongly |  |  |  |
| c-T2-[Ac-CRVPGAAHHADSLC-NH2] (linker 1-14 via T2 (inferred)) [compound 1] |  | 2.5 µM | 15 µM | 0.27 µM |
